Data reported in patent US5610174A, “Use of α1A -selective adrenoceptor agonists for the treatment of urinary incontinence” (priority 1995, dated 1997).
Read-outs that look alike come from different tables or passages of the source.

How the values were obtained:
[1] = target: T1, human dopamine D1 receptor (Homo sapiens, UniProt P21728); assay: Radioligand binding at human dopamine D1; conditions: for Ki: read-out: pKi D1 (converted)
T1 construct: expressed in transfected cells
Experimental: Other Dopamine receptors were prepared by known methods. (D1 : Dearry et al., Nature, 347, 72, (1990), deposited with the European Molecular Biological Laboratory (EMBL) Genbank as X55760; D3 : Sokoloff, P. et al., Nature, 347, 146 (1990), deposited with the European Molecular Biological Laboratory (EMBL) Genbank as X53944; D5 : Sunahara, R. K., et al., Nature, 350, 614 (1991), deposited with EMBL Genbank as X58454-HU HD 5DR).

human α2A adrenoceptor = target: T2, human α2A adrenoceptor (Homo sapiens, UniProt P08913); assay: Inhibition of forskolin stimulated adenylyl cyclase, α2A; assay type: cell-based; conditions: for Emax: read-out: intrinsic activity (i.a.) α2A
T2 construct: expressed in transfected cells; host or cells: LM(tk-)
T2 sequence (P08913 1-465): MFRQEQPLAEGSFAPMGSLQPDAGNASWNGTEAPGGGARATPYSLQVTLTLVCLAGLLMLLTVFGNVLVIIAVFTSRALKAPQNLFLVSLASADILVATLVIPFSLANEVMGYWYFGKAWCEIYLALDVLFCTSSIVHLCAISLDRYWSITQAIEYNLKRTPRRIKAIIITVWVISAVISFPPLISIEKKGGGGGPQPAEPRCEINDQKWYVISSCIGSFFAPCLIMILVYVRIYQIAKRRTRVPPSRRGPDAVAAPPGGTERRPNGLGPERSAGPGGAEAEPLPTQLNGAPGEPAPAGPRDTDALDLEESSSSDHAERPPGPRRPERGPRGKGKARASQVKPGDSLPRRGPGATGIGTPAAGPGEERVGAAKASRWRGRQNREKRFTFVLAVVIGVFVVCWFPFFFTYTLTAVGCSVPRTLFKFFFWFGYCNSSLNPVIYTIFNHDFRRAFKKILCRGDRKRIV
Experimental: α2 -Adrenoceptor-Mediated Inhibition of Forskolin Stimulated Adenylyl Cyclase
The agonist activity of test compounds was assayed by measuring their ability to inhibit adenylyl cyclase in cells stably transfected with each of the three cloned human α2 -adrenoceptors. LM(tk-) cells expressing the α2A - or the α2C -, as well as Y1 cells expressing the α2B -adrenoceptor were used. […] The formation of cyclic AMP was measured in cultures incubated with DMEM containing 1 mM theophylline. […] The data from concentration-response curves was fitted to a four-parameter logistic equation, by non-linear regression analysis, to determine the pEC50 and intrinsic activity.

[2] = target: T3, rat atrial β-adrenoceptors (Rattus norvegicus, UniProt P18090); assay: β-Adrenoceptor activity in isolated rat right atrium; conditions: vs isoprenaline, up to 100 μM; for Ki: read-out: pKi β (rat atrial β-adrenoceptors) (converted)
T3 construct: Right atria were removed from rats and placed immediately into oxygenated Krebs solution; from tissue; host or cells: isolated, spontaneously beating rat right atrium
Experimental: Determination of -Adrenoceptor Activity in the Isolated Rat Right Atrium
Right atria were removed from rats and placed immediately into oxygenated Krebs solution at 37° C. The Krebs solution was replaced three times at 5 min intervals and the tissues were tensioned three times to 0.5 g. In spontaneously beating atria, a control concentration effect curve to isoprenaline was generated. β-Adrenoceptor-mediated increase in atrial rate were measured as the response. […]. The antagonist effects of the test compounds were measured using the dose-ratio method, by comparing the shift in pEC50 for isoprenaline.

human 5-HT1Dα receptor = target: T4, human 5-HT1Dα receptor (Homo sapiens, UniProt P28221); assay: Radioligand binding at human 5-HT1Dα
T4 construct: expressed in transfected cells; host or cells: LM(tk-) clonal cell line, designated Ltk-8-30-84, ATCC CRL 10421 (cell lysates)
Experimental: (§1) Human Serotonin Receptors
5-HT1Dα, 5-HT1Dβ, 5-HT1E, 5-HT1F, and 5-HT7 Receptors: The cell lysates of LM(tk-) clonal cell line stably transfected with the genes encoding each of these 5-HT receptor-subtypes were prepared as described above. The cell line for the 5-HT1Dαreceptor, designated as Ltk-8-30-84, was deposited on Apr. […] The cell for the 5-HT1Dβ receptor, designated as Ltk-11, was deposited on Apr. […] The cell line for the 5-HT1E receptor, designated 5-HT1E -7, was deposited on Nov. […] The cell line for the 5-HT1F receptor, designated L-5-HT1F, was deposited on Dec. […] The cell line for the 5-HT7 receptor, designated as L-5-HT-4B, was deposited on Oct. […] These preparations were suspended in 50 mM Tris-HCl buffer (pH 7.4 at 37° C.) containing 10 mM MgCl2, 0.2 mM EDTA, 10 μM pargyline, and 0.1% ascorbate. […] Nonspecific binding was determined in the presence of 10 μM serotonin. The bound radioligand was separated by filtration through GF/B filters using a cell harvester.

human 5-HT1E receptor = target: T5, human 5-HT1E receptor (Homo sapiens, UniProt P28566); assay: Radioligand binding at human 5-HT1E; conditions: [3H]serotonin; for Ki: read-out: pKi 5-HT1E (converted)
T5 construct: expressed in transfected cells; host or cells: LM(tk-) clonal cell line, designated 5-HT1E-7, ATCC CRL 10913 (cell lysates)
Experimental: as §1
5-HT1Dα, 5-HT1Dβ, 5-HT1E, 5-HT1F, and 5-HT7 Receptors: The cell lysates of LM(tk-) clonal cell line stably transfected with the genes encoding each of these 5-HT receptor-subtypes were prepared as described above. The cell line for the 5-HT1Dαreceptor, designated as Ltk-8-30-84, was deposited on Apr. 17, 1990, and accorded ATCC Accession No. CRL 10421. The cell for the 5-HT1Dβ receptor, designated as Ltk-11, was deposited on Apr. 17, 1990, and accorded ATCC Accession No. CRL 10422. The cell line for the 5-HT1E receptor, designated 5-HT1E -7, was deposited on Nov. 6, 1991, and accorded ATCC Accession No. CRL 10913. The cell line for the 5-HT1F receptor, designated L-5-HT1F, was deposited on Dec. 27, 1991, and accorded ATCC Accession No. CRL 10957. The cell line for the 5-HT7 receptor, designated as L-5-HT-4B, was deposited on Oct. 20, 1992, and accorded ATCC Accession No. CRL 11166. These preparations were suspended in 50 mM Tris-HCl buffer (pH 7.4 at 37° C.) containing 10 mM MgCl2, 0.2 mM EDTA, 10 μM pargyline, and 0.1% ascorbate. […] Nonspecific binding was determined in the presence of 10 μM serotonin. The bound radioligand was separated by filtration through GF/B filters using a cell harvester.

T4 sequence (P28221 whole entry): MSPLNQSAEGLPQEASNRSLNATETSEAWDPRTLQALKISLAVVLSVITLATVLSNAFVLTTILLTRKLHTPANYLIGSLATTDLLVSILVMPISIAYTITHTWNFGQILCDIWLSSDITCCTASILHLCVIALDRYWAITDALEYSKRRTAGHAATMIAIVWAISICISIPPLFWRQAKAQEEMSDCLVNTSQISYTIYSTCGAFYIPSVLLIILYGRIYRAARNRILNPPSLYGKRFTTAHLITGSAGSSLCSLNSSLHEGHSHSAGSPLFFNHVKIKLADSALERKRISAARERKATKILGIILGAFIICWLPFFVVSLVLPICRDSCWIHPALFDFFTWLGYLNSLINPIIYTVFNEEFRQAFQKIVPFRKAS
T3 sequence (P18090 whole entry): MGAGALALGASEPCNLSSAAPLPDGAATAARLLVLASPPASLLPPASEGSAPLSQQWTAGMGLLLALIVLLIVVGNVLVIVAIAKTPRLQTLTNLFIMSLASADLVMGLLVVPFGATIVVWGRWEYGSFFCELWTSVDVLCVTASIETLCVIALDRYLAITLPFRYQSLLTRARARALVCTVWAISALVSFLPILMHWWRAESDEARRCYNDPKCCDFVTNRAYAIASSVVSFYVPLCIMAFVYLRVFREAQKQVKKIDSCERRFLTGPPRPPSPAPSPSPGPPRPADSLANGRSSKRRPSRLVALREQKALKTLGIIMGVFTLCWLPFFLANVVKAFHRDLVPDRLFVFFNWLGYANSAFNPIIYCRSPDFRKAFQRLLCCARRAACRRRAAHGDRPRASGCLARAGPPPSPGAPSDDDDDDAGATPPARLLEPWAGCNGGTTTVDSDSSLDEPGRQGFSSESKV
T5 sequence (P28566 whole entry): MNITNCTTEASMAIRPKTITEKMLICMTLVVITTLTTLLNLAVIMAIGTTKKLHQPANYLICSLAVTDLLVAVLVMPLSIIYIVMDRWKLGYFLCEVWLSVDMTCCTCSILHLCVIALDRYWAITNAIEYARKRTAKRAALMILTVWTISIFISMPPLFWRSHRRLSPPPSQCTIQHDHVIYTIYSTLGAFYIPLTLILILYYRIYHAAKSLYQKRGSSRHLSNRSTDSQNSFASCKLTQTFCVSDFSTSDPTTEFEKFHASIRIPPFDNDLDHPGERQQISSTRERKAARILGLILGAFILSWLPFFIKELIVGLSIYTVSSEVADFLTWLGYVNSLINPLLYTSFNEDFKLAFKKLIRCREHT
T1 sequence (P21728 whole entry): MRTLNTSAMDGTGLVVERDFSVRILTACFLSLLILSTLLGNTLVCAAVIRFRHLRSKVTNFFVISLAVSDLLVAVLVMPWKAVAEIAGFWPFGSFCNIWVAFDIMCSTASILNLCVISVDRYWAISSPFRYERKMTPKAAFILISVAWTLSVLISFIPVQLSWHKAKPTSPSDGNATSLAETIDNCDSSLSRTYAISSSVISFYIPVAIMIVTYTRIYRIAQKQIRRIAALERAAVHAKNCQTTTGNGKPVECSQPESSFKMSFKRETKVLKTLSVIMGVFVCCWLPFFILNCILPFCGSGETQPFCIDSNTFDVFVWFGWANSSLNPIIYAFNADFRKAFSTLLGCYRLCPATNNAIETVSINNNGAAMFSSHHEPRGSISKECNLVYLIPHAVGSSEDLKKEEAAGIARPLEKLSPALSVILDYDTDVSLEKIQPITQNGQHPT

SMILES	Emax (human α2A adrenoceptor)	Ki [1]	Ki [2]	Ki (human 5-HT1E receptor)	EC50 (human α2A adrenoceptor)	other results
CNCCc1ccc(O)c(NS(C)(=O)=O)c1 [SK&F 102652]	0%					pKi D1 [1]: 5.0; pEC50 α2A (human α2A adrenoceptor; agonist, inhibition of forskolin stimulated adenylyl cyclase): < 4.0; pKi β (rat atrial β-adrenoceptors) [2]: < 4; pKi 5-HT1Dα (human 5-HT1Dα receptor; [3H]serotonin): 5.9; pKi 5-HT1E (human 5-HT1E receptor): 5.3
CS(=O)(=O)Nc1c(O)ccc2c1CCCC2C1=NCCN1 (racemic) [Compound A-61603, (±)-N-[5-(4,5-Dihydro-1H-imidazol-2-yl)-2-hydroxy-5,6,7,8-tetra-hydronaphthalen-1-yl]methanesulfonamide]		20000 nM	> 100000 nM	5010 nM		Ki (human 5-HT1Dα receptor; [3H]serotonin, read-out: pKi 5-HT1Dα (converted)): 2510 nM
COc1ccc(OC)c(C(O)CN)c1 (racemic) [ST-1059, (±)-2-Amino-1-(2, 5 dimethoxyphenyl) ethanol]	20%				2510 nM	
C[C@H](N)[C@H](O)c1ccccc1 [(-)-norephedrine]	50%				7.94 nM	
CN[C@@H](C)[C@H](O)c1ccccc1 [(-)-ephedrine]	30%				251 nM	
COc1ccc(SC)c2c1C[C@@H]1[C@@H](C2)OCCN1C (relative stereo) [SDZ NVI-085, (±)-trans-4-Methyl-6-methoxy-9-thiomethoxy-3,4,4a, 5,10,10a-hexahydro-2H-naphtho[2,3-b][1,4]oxazine]	0%	7940 nM	> 100000 nM	2000 nM		EC50 (human α2A adrenoceptor; agonist, inhibition of forskolin stimulated adenylyl cyclase, read-out: pEC50 α2A (converted)): > 100000 nM; Ki (human 5-HT1Dα receptor): 12.6 nM
